IC50 data for 6 compounds are collected here from US20250304551A1 (SHANGHAI APEIRON THERAPEUTICS COMPANY LIMITED, priority 2022, published 2025).

The structures appear in SMILES notation.

For test [1], the target named is T1, Human KIF18A (amino acid sequence 1-417) (Homo sapiens, UniProt Q8NI77).
T1 construct: purchased Viva Biotech (Shanghai) Ltd
Description: Enzyme activity detection experiment (ADP-Glo, KIF18A with tubulin and ATP). The conditions noted are these: tubulin 60 μg/mL, ATP 25 μM, KIF18A protein 2.5 nM, 120 minutes at ambient temperature, ADP-Glo chemiluminescence. It is filed as biochemical. Summed up:
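KIF18A (2.5 nM) was incubated with tubulin (60 μg/mL as added), ATP (25 μM) and serially diluted compound for 120 min at ambient temperature. ADP formed was detected by ADP-Glo: reagent for 30 min, then detection reagent for 30 min in the dark, with chemiluminescence read-out.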

In the next test the test system is OVCAR3 cells. Briefly: Cell proliferation activity test, OVCAR3 (CyQUANT Direct). Conditions: Homo sapiens, OVCAR-3, 72 h, 3 days incubation, CyQUANT fluorescence detection, read-out: OVCAR-3 Cell Viability_IC50_nM. It is filed as cell-based. Summed up:
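OVCAR3 cells seeded overnight, then exposed to compounds at 0-10 μM final (0.20% DMSO) for 3 days at 37° C. Cell number read by CyQUANT Direct fluorescence after 60 min at 37° C.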

The subject of a further test is HT29 cells. Description: CyQuant cell proliferation activity test, HT29. Format: cell-based. Conditions: Homo sapiens, HT-29, 72 h, HT29 2000 cells per well, 3 days incubation, initial concentration 3000 nM, IC50 by XLFIT, read-out: HT-29 Cell Viability_IC50_nM. Put shortly: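 HT29 cells (2000/well, RPMI-1640 with 10% FBS) were plated overnight, then exposed to compound for 3 days at 37 °C, 5% CO2. Dosing was 9 concentrations, 3-fold dilutions from 3000 nM, in 0.20% DMSO. Proliferation was read with CyQuant reagent after 1 h, and IC50 derived from the curves.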

T1 sequence (Q8NI77 1-417): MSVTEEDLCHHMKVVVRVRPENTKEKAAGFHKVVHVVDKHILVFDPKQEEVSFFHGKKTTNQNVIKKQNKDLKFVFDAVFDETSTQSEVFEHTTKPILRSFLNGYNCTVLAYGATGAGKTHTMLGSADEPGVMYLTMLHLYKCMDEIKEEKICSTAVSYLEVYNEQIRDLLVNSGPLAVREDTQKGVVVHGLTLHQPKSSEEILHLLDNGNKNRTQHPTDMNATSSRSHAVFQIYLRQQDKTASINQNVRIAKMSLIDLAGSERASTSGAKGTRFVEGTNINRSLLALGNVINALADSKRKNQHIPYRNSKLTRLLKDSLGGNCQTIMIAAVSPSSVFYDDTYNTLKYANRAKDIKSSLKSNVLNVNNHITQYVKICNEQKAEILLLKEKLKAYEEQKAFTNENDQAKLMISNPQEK
T1 sequence (Q2XVP4 whole entry partner): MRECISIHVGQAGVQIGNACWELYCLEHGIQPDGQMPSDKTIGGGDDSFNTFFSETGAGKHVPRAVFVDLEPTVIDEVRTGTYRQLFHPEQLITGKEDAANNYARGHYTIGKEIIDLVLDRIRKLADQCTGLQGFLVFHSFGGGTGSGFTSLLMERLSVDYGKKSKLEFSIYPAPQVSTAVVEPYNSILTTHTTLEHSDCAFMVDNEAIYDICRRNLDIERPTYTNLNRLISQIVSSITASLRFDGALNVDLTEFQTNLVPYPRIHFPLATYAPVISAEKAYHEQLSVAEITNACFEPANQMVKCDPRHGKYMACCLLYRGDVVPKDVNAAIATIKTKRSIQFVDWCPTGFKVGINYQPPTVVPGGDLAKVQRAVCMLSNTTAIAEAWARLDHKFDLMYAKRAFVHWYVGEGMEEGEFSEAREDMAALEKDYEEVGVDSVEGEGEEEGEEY
T1 sequence (P02554 whole entry partner): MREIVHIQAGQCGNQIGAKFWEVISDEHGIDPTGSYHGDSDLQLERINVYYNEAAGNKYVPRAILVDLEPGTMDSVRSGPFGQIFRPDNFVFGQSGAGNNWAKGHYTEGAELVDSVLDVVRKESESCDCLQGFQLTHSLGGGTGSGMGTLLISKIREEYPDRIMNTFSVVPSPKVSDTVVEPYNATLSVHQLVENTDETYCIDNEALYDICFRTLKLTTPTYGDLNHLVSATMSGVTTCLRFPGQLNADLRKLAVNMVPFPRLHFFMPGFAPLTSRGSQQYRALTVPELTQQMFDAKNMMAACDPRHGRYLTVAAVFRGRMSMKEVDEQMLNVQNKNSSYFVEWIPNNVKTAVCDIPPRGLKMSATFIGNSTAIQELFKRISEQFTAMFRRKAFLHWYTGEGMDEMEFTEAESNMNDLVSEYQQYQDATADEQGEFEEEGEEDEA

`Cc1cc(-c2cn(-c3ccc(NS(=O)(=O)CCO)cc3N3CCC4(CC3)CC4)nn2)nc(N2CCOCC2)n1` [Example 42, 2-hydroxy-N-(4-(4-(6-methyl-2-morpholinopyrimidin-4-yl)-1H-1,2,3-triazol-1-yl)-3-(6-azaspiro[2.5]octan-6-yl)phenyl)ethanesulfonamide]: the figures for the IC50 (in test [1]; with OVCAR3 cells; in the test on HT29 cells) were 0.019 µM, 0.012 µM and 0.015 µM, respectively.
Consider `O=S(=O)(CCO)Nc1ccc(/C(F)=C/c2cc(N3CCC(F)(F)CC3)c3ncccc3c2)c(N2CCC3(CC2)CC3)c1` [Example 2, (Z)-N-(4-(2-(8-(4,4-difluoropiperidin-1-yl)quinolin-6-yl)-1-fluorovinyl)-3-(6-azasppiro[2.5]octan-6-yl)phenyl)-2-hydroxyethane-1-sulfonamide], for which the IC50 was more than 3 µM in test [1], 0.766 µM with OVCAR3 cells and 0.811 µM with HT29 cells.
With `Cc1cc(-c2cn(-c3cnc(NS(=O)(=O)CCO)cc3N3CCC4(CC3)CC4)nn2)cc(N2CCC(F)(F)CC2)n1` [Example 68, N-(4-{6-azaspiro[2.5]octan-6-yl}-5-{4-[2-(4,4-difluoropiperidin-1-yl)-6-methylpyridin-4-yl]-1H-1,2,3-triazol-1-yl}pyridin-2-yl)-2-hydroxyethane-1-sulfonamide], the IC50 was found to be 0.112 µM in test [1], 0.159 µM in the test with OVCAR3 cells and 0.25 µM with HT29 cells.
Take `O=S(=O)(CCO)Nc1ccc(-n2cc(-c3ccc(-c4cccnc4)c(N4CCC(F)(F)CC4)n3)nn2)c(N2CCC3(CC2)CC3)c1` [Example 82, N-(3-{6-azaspiro[2.5]octan-6-yl}-4-{4-[2-(4,4-difluoropiperidin-1-yl)-[3,3′-bipyridyl]-6-yl]-1H-1,2,3-triazol-1-yl}phenyl)-2-hydroxyethane-1-sulfonamide]: the IC50 in test [1] was found to be 0.283 µM; with OVCAR3 cells it was 0.015 µM; with HT29 cells, 0.023 µM.
Take `Cc1cc(-c2cn(-c3ccc(NS(=O)(=O)CCO)cc3N3CCC4(CC3)CC4)nn2)nc(N2C[C@@H](C)O[C@@H](C)C2)n1` [Example 44, N-(4-(4-(2-((2R,6S)-2,6-dimethylmorpholino)-6-methylpyrimidin-4-yl)-1H-1,2,3-triazol-1-yl)-3-(6-azaspiro[2.5]octan-6-yl)phenyl)-2-hydroxyethane-1-sulfonamide]: the IC50 is 0.022 µM in test [1], 0.014 µM with OVCAR3 cells and 0.012 µM in the test with HT29 cells.
Take `Cc1cc(-c2cn(-c3ccc(NS(=O)(=O)CCO)cc3N3CCC4(CC3)CC4)nn2)nc(C2CCOCC2)n1` [Example 36, 2-hydroxy-N-(4-(4-(6-methyl-2-(tetrahydro-2H-pyran-4-yl)pyrimidin-4-yl)-1H-1,2,3-triazol-1-yl)-3-(6-azaspiro[2.5]octan-6-yl)phenyl)ethane-1-sulfonamide]: the IC50 in test [1] turned out to be 0.05 µM; in the test with OVCAR3 cells, 0.03 µM; in the test on HT29 cells it was 0.039 µM.
